In the supplement of paper PMC10627819:

Key:
S. aureus DSM 20231 [1] = experiment: fitness (endpoint OD595 vs no drug) (fraction); higher = more growth
In short: (§1)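 Fitness is computed from the optical density at which cultures reach stationary phase, divided by the robust mean of no-drug control wells. Any value above 1 is set to 1. Cultures started at OD595 0.01 in 384-well plates with TSB, LB Lennox or CY at 37 °C, and OD595 was read every 30 min for 14 h against a first-reading background.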

S. aureus Newman [2] = experiment: as above
In short: as §1

S. pneumoniae D39V [3] = experiment: as above
In short: as §1

B. subtilis 168 = experiment: Bliss interaction score (quartile over a dose matrix) (fitness difference); higher = more antagonism (negative = synergy)
In short: (§2)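 Each OD595 reading at entry into stationary phase was scaled to the robust mean of the untreated wells on its plate, with a ceiling of 1. These ratios define fitness, and single-drug fitness was inferred from combinations. The Bliss score compares observed fitness with the product-based expectation and is reported as quartiles across all replicate types, technical, biological and donor/recipient.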

S. aureus DSM 20231 [4] = experiment: as above
In short: as §2

S. aureus Newman [5] = experiment: as above
In short: as §2

S. pneumoniae D39V [6] = experiment: as above
In short: as §2
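Wherever Bliss interaction score (quartile over a dose matrix) is given: first quartile when negative (synergy) and third quartile when positive (antagonism).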
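Wherever fitness (endpoint OD595 vs no drug) is given: OD595 on entry to stationary phase over no-drug wells; at most 1.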

CO/N=C(\C(=O)N[C@@H]1C(=O)N2C(C(=O)[O-])=C(C[N+]3(C)CCCC3)CS[C@H]12)c1csc(N)n1 [Cefepime] + Cc1cc(NS(=O)(=O)c2ccc(N)cc2)no1 [Sulfamethoxazol]
fitness
Conditions | first compound 0.007 µg/mL | first compound 0.014 µg/mL | first compound 0.028 µg/mL | first compound 0.125 µg/mL | first compound 0.25 µg/mL | first compound 0.5 µg/mL
S. aureus DSM 20231 [1], partner 1 µg/mL | – | – | – | 0.839 | 0.739 | 0.79
S. aureus DSM 20231 [1], partner 2 µg/mL | – | – | – | 0.88 | 0.766 | 0.84
S. aureus DSM 20231 [1], partner 4 µg/mL | – | – | – | 0.874 | 0.779 | 0.823
S. aureus Newman [2], partner 1 µg/mL | – | – | – | 0.956 | 0.875 | 0.745
S. aureus Newman [2], partner 2 µg/mL | – | – | – | 0.908 | 0.843 | 0.773
S. aureus Newman [2], partner 4 µg/mL | – | – | – | 0.964 | 0.863 | 0.789
S. pneumoniae D39V [3], partner 1 µg/mL | 0.978 | 0.991 | 0.887 | – | – | –
S. pneumoniae D39V [3], partner 2 µg/mL | 0.982 | 0.986 | 0.922 | – | – | –
S. pneumoniae D39V [3], partner 4 µg/mL | 0.98 | 0.992 | 0.892 | – | – | –

fitness, one replicate
Conditions | first compound 0.0078 µg/mL | first compound 0.0155 µg/mL | first compound 0.031 µg/mL | first compound 0.125 µg/mL | first compound 0.25 µg/mL | first compound 0.5 µg/mL
S. aureus Newman [2], partner 8 µg/mL | – | – | – | 0.981 | 0.972 | 0.854
S. pneumoniae D39V [3], partner 1 µg/mL | ≥ 1 | 0.99 | 0.842 | – | – | –
S. pneumoniae D39V [3], partner 2 µg/mL | ≥ 1 | ≥ 1 | 0.866 | – | – | –
S. pneumoniae D39V [3], partner 4 µg/mL | 0.959 | 0.914 | 0.804 | – | – | –

Conditions | Bliss interaction score
B. subtilis 168 | 0.0793
S. aureus DSM 20231 [4] | -0.0768
S. aureus Newman [5] | -0.0727
S. pneumoniae D39V [6] | 0.034

CO/N=C(\C(=O)N[C@@H]1C(=O)N2C(C(=O)[O-])=C(C[N+]3(C)CCCC3)CS[C@H]12)c1csc(N)n1 [Cefepime] + CN[C@@H]1[C@H](O)[C@H](NC)[C@H]2O[C@@]3(O)C(=O)C[C@@H](C)O[C@H]3O[C@@H]2[C@H]1O [Spectinomycin]
fitness
Conditions | first compound 0.007 µg/mL | first compound 0.014 µg/mL | first compound 0.028 µg/mL | first compound 0.125 µg/mL | first compound 0.25 µg/mL | first compound 0.5 µg/mL
S. aureus DSM 20231 [1], partner 4 µg/mL | – | – | – | 0.755 | 0.729 | 0.851
S. aureus DSM 20231 [1], partner 8 µg/mL | – | – | – | 0.865 | 0.849 | 0.861
S. aureus DSM 20231 [1], partner 16 µg/mL | – | – | – | 0.806 | 0.764 | 0.778
S. aureus Newman [2], partner 4 µg/mL | – | – | – | 0.835 | 0.809 | 0.724
S. aureus Newman [2], partner 8 µg/mL | – | – | – | 0.864 | 0.805 | 0.742
S. aureus Newman [2], partner 16 µg/mL | – | – | – | 0.847 | 0.766 | 0.682
S. pneumoniae D39V [3], partner 4 µg/mL | 0.935 | 0.935 | 0.877 | – | – | –
S. pneumoniae D39V [3], partner 8 µg/mL | 0.943 | 0.974 | 0.873 | – | – | –
S. pneumoniae D39V [3], partner 16 µg/mL | 0.916 | 0.918 | 0.876 | – | – | –

fitness, one replicate
Conditions | first compound 0.0078 µg/mL | first compound 0.0155 µg/mL | first compound 0.031 µg/mL | first compound 0.125 µg/mL | first compound 0.25 µg/mL | first compound 0.5 µg/mL
S. aureus DSM 20231 [1], partner 32 µg/mL | – | – | – | 0.736 | 0.669 | 0.647
S. aureus DSM 20231 [1], partner 64 µg/mL | – | – | – | 0.0956 | 0.0736 | 0.0704
S. aureus Newman [2], partner 32 µg/mL | – | – | – | 0.418 | 0.372 | 0.182
S. aureus Newman [2], partner 64 µg/mL | – | – | – | 0.0932 | 0.0802 | 0.0762
S. pneumoniae D39V [3], partner 4 µg/mL | ≥ 1 | 0.988 | 0.577 | – | – | –
S. pneumoniae D39V [3], partner 8 µg/mL | 0.999 | ≥ 1 | 0.716 | – | – | –

Conditions | Bliss interaction score
B. subtilis 168 | -0.0538
S. aureus DSM 20231 [4] | -0.0966
S. aureus Newman [5] | -0.0659
S. pneumoniae D39V [6] | 0.147

CCCCCCCCCC(=O)N[C@@H](Cc1c[nH]c2ccccc12)C(=O)N[C@H](CC(N)=O)C(=O)N[C@@H](CC(=O)O)C(=O)N[C@@H]1C(=O)NCC(=O)N[C@@H](CCCN)C(=O)N[C@@H](CC(=O)O)C(=O)N[C@H](C)C(=O)N[C@@H](CC(=O)O)C(=O)NCC(=O)N[C@H](CO)C(=O)N[C@@H]([C@H](C)CC(=O)O)C(=O)N[C@@H](CC(=O)c2ccccc2N)C(=O)O[C@@H]1C [Daptomycin] + Cn1nnc(-c2ccc(-c3ccc(N4C[C@H](CO)OC4=O)cc3F)cn2)n1 [Tedizolid]
fitness, S. aureus DSM 20231 [1], one replicate
Conditions | partner 0.0625 µg/mL | partner 0.125 µg/mL | partner 0.25 µg/mL
first compound 0.125 µg/mL | 0.918 | 0.765 | 0.354
first compound 0.25 µg/mL | 0.894 | 0.762 | 0.375

fitness
Conditions | partner 0.03125 µg/mL | partner 0.0625 µg/mL | partner 0.125 µg/mL | partner 0.25 µg/mL | partner 0.5 µg/mL
S. aureus DSM 20231 [1], first compound 0.5 µg/mL | – | 0.896 | 0.832 | 0.322 | –
S. aureus DSM 20231 [1], first compound 1 µg/mL | – | 0.907 | 0.78 | 0.293 | –
S. aureus DSM 20231 [1], first compound 2 µg/mL | – | 0.896 | 0.677 | 0.389 | –
S. aureus Newman [2], first compound 0.125 µg/mL | – | 0.977 | 0.914 | – | –
S. aureus Newman [2], first compound 0.25 µg/mL | – | 0.97 | 0.879 | – | –
S. aureus Newman [2], first compound 0.5 µg/mL | – | 0.964 | 0.914 | – | –
S. pneumoniae D39V [3], first compound 1 µg/mL | 0.916 | 0.942 | 0.619 | 0.23 | 0.0913
S. pneumoniae D39V [3], first compound 2 µg/mL | 0.917 | 0.905 | 0.625 | 0.245 | 0.0924
S. pneumoniae D39V [3], first compound 4 µg/mL | 0.93 | 0.966 | 0.643 | 0.256 | 0.0875

Conditions | Bliss interaction score
B. subtilis 168 | 0.0472
S. aureus DSM 20231 [4] | 0.0665
S. aureus Newman [5] | 0.0584
S. pneumoniae D39V [6] | -0.141
